Biological target: T1, human JAK3 (Homo sapiens, UniProt P52333)
T1 construct: His (N); purchased Carna Bioscience Inc. (Kobe, Japan); host or cells: baculovirus expression system
Assay: Determination of Janus Kinase 3 (JAK3) inhibitory activity
Format: biochemical
Details: test compound 10^−8M; read-out: IR (JAK3 inhibition rate)
Method: Test 1: Determination of Janus Kinase 3 (JAK3) Inhibitory Activity
The assay for JAK3 activity was performed basically according to the method as proposed by Okimoto et al, as follows.
Purified kinase domain (KD) of human JAK3 was purchased from Carna Bioscience Inc. (Kobe, Japan). 796-1124 (end) amino acids of human JAK3 [accession number #NM_000215] was expressed as N-terminal His-tagged protein (41 kDa) using the baculovirus expression system and purified by using Ni-NTA affinity chromatography.
Biotin-Lyn-Substrate-peptide and ATP were used as substrates. Assay buffer consisted of 15 mM Tris-HCl pH7.5, 0.01% Tween 20 and 2 mM DTT. For the standard assay, 20 μL of substrate solution (Assay buffer containing 627 nM Biotin-Lyn-Substrate-2, 20 μM ATP and 25 mM MgCl2), 10 μL of assay buffer containing test compound and 20 μL of enzyme solution were added to the plate and mixed well.
After 1 hour incubation at ambient temperature, the plate was washed 4 times with wash buffer (50 mM Tris-HCl pH 7.5, 150 mM NaCl, 0.02% Tween 20), and then blocking buffer (wash buffer containing 0.1% Bovine serum albumin) was added to the plate. After 30 minutes incubation at ambient temperature, blocking buffer was removed and HRP-PY-20 solution (HRP-PY-20 500 times diluted with blocking buffer) was added. After 30 minutes incubation at ambient temperature, the plate was washed 4 times and TMB substrate solution (Sigma) was added to the plate. After 4 minutes incubation at ambient temperature, 1 M H2SO4 was added to the plate to stop the reaction. Enzyme activity was measured as optical density at 450 nm.

T1 sequence (P52333 796-1124): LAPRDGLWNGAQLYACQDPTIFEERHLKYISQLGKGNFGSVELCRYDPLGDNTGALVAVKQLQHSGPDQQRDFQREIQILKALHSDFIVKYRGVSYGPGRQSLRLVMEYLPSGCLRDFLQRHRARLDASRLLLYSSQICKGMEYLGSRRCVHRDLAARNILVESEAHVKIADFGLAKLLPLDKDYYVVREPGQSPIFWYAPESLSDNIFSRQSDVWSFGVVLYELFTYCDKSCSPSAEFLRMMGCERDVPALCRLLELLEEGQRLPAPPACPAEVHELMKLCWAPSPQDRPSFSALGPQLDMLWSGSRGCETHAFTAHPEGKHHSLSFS

With `C[C@@H]1CCN(C(=O)CC#N)C[C@@H]1n1c(=O)[nH]c2cnc3[nH]ccc3c21` (relative stereo) [Example 189, rel-3-[(3R,4R)-4-Methyl-3-(2-oxo-3,6-dihydroimidazo[4,5-d]pyrrolo-[2,3-b]pyridin-1(2H)-yl)-1-piperidinyl]-3-oxopropanenitrile] the inhibition at 0.01 µM was > 50%.
